Data set [1] can be described thus: physchem. Conditions: buffer.
Data set [2] in a line: Hydrolysis studies of silicon-linker constructs and conjugates (HEPES buffer, UPLC/MS).
For data set [3], the system named is KB cells. The data set can be described thus: Cellular data: KB cell viability (Cell titer-glo luminescence). Format: cell-based. As to conditions: for % Kill (48 h): percent cell kill at 48 h; for EC50: folate free RPMI, 2 h compound incubation, wash, additional 70 h. The procedure:
KB cells in culture were seeded in white clear bottom 96-well tissue culture plate at a density of 5,000 cells per well in a folate free RPMI media with 10% FBS a day prior to compound addition. Cells were counted visually with a hemocytometer and diluted accordingly to obtain the desired density. Cells were allowed to incubate for 24 hours in a humidified CO2 atmosphere in an incubator at 37° C. The spent media was aspirated and replenished with 100 μL of fresh media containing a 3-fold serial dilution of compound with concentrations ranging from 0.3 to 2000 nM and with a final DMSO concentration of 0.1%. Blank wells without compound were also treated with media containing 0.1% DMSO. […] […] At the end of 70 h, the spent media was removed and cells were washed once with fresh media and then suspended 100 μL of PBS. 100 μL of constituted Cell titer-glo reagent was added to each well and luminescence was recorded with a VICTOR plate reader according to manufacturers' protocol.
For orientation: In ATP-based viability assays light output follows the ATP content of the culture.

Molecules are shown by their SMILES. Bounds are passed on as bounds.

One may read the half-life as how long it takes for the measured level to halve. A low value points to fast loss. As for `Cc1ccnc(SC[Si](C)(C)O[Si](C)(C)C)n1` [Example 27, 4-Methyl-2-(((1,1,3,3,3-pentamethyldisiloxanyl)methyl)thio)pyrimidine], the half-life in data set [1] (pH 5) is 0.2 h; in data set [1] (pH 7.4) it was greater than 2 h.
In data set [1] (pH 5), `C[Si](C)(C)O[Si](C)(C)CSc1nccc(C(F)(F)F)n1` [Example 28, 2-(((1,1,3,3,3-pentamethyldisiloxanyl)methyl)thio)-4-(trifluoromethyl)pyrimidine] had a half-life greater than 2 h.
With `C[Si](C)(C)O[Si](C)(C)CSc1ncccn1` [Example 8, 2-(((1,1,3,3,3-Pentamethyldisiloxanyl)methyl)thio)pyrimidine], the results for the half-life in data set [1] (pH 5) and in data set [1] (pH 7.4) were 0.0833 h and 24 h, respectively.
As to `C[Si](C)(C)O[Si](C)(C)CSc1cnccn1` [Example 31, 2-(((1,1,3,3,3-pentamethyldisiloxanyl)methyl)thio)pyrazine], the half-life in data set [1] (pH 5) turned out to be 0.5 h.
With `CC(=O)NCCC[Si](C)(C)O[Si](C)(C)CCCn1cc(-c2ccccc2)nn1` [Example 69, N-(3-(1,1,3,3-tetramethyl-3-(3-(4-phenyl-1H-1,2,3-triazol-1-yl)propyl)disiloxanyl)propyl)acetamide], the half-life in data set [1] (pH 5) was 4 h; in data set [1] (pH 7.4) it was greater than 6 h.
For the compound `CC(=O)NCCC[Si](C)(C)O[Si](C)(C)CSc1ncc(Cn2cc(-c3ccc(COCC(COCc4ccc(-c5cn(Cc6cnc(SC[Si](C)(C)O[Si](C)(C)CCCNC(C)=O)nc6)nn5)cc4)(COCc4ccc(-c5cn(Cc6cnc(SC[Si](C)(C)O[Si](C)(C)CCCNC(C)=O)nc6)nn5)cc4)NC(=O)OC(C)(C)C)cc3)nn2)cn1` [Example 73, tert-butyl(1,3-bis((4-(1-((2-(((3-(3-acetamidopropyl)-1,1,3,3-tetramethyldisiloxanyl)methyl)thio)pyrimidin-5-yl)methyl)-1H-1,2,3-triazol-4-yl)benzyl)oxy)-2-(((4-(1-((2-(((3-(3-acetamidopropyl)-1,1,3,3-tetramethyldisiloxanyl)methyl)thio)pyrimidin-5-yl)methyl)-1H-1,2,3-triazol-4-yl)benzyl)oxy)methyl)propan-2-yl)carbamate], the figures for the half-life in data set [1] (pH 5) and in data set [1] (pH 7.4) were 18 h and greater than 18 h, respectively.
In the same order, the values of `CC(=O)NCCC[Si](C)(C)O[Si](C)(C)CSc1ncc(COCCOCCOCCn2cc(COCC(COCc3cn(CCOCCOCCOCc4cnc(SC[Si](C)(C)O[Si](C)(C)CCCNC(C)=O)nc4)nn3)(COCc3cn(CCOCCOCCOCc4cnc(SC[Si](C)(C)O[Si](C)(C)CCCNC(C)=O)nc4)nn3)NC(C)=O)nn2)cn1` [Example 63] are 1 h and greater than 18 h.
For `CC[C@]1(O)C[C@@H]2CN(CCc3c([nH]c4ccccc34)[C@@](C(=O)OC)(c3cc4c(cc3OC)N(C)[C@H]3[C@@](O)(C(=O)NCCC[Si](C)(C)O[Si](C)(C)CSc5ncc(Cn6cc(C[C@H](NC(=O)[C@H](CC(=O)O)NC(=O)[C@H](CC(=O)O)NC(=O)[C@H](CCCNC(=N)N)NC(=O)[C@H](CC(=O)O)NC(=O)CC[C@H](NC(=O)c7ccc(NCc8cnc9nc(N)[nH]c(=O)c9n8)cc7)C(=O)O)C(=O)O)nn6)cn5)[C@H](O)[C@]5(CC)C=CCN6CC[C@]43[C@@H]65)C2)C1` [Example 81], the half-life was determined as 0.583 h in data set [2] (pH 5) and 24 h in data set [2] (pH 7.4). Also, the “% Kill (48 h)” value in data set [3] is 86%.
For `C[Si](C)(COc1ncccn1)O[Si](C)(C)COc1ncccn1` [Example 15, 1,1,3,3-Tetramethyl-1,3-bis((pyrimidin-2-yloxy)methyl)disiloxane], the half-life in data set [1] (pH 5) is 0.417 h; in data set [1] (pH 7.4), greater than 4 h.
For the compound `CC(=O)NCCC[Si](C)(C)O[Si](C)(C)CSc1ncc(Cn2cc(-c3ccccc3)nn2)cn1` [Example 62, N-(3-(1,1,3,3-tetramethyl-3-(((5-((4-phenyl-1H-1,2,3-triazol-1-yl)methyl)pyrimidin-2-yl)thio)methyl)disiloxanyl)propyl)acetamide], the half-life in data set [1] (pH 5) is 0.333 h; in data set [1] (pH 7.4), greater than 3 h.
In data set [2] (pH 7.4), `CC[C@]1(O)C[C@H]2CN(CCc3c([nH]c4ccccc34)[C@@](C(=O)OC)(c3cc4c(cc3OC)N(C)[C@H]3[C@@](O)(C(=O)NCCC[Si](C)(C)O[Si](C)(C)CSc5ncc(Cn6cc(COCC(COCc7cn(Cc8cnc(SC[Si](C)(C)O[Si](C)(C)CCCNC(=O)[C@@]9(O)[C@H](O)[C@]%10(CC)C=CCN%11CC[C@@]%12(c%13cc([C@@]%14(C(=O)OC)C[C@@H]%15CN(CCc%16c%14[nH]c%14ccccc%16%14)C[C@](O)(CC)C%15)c(OC)cc%13N(C)[C@@H]9%12)[C@@H]%11%10)nc8)nn7)(COCc7cn(Cc8cnc(SC[Si](C)(C)O[Si](C)(C)CCCNC(=O)[C@@]9(O)[C@H](O)[C@]%10(CC)C=CCN%11CC[C@@]%12(c%13cc([C@@]%14(C(=O)OC)C[C@@H]%15CN(CCc%16c%14[nH]c%14ccccc%16%14)C[C@](O)(CC)C%15)c(OC)cc%13N(C)[C@@H]9%12)[C@@H]%11%10)nc8)nn7)NC(=O)CCOCCOCCOCCOCCOCCOCCNC(=O)CC[C@H](NC(=O)c7ccc(NCc8cnc9nc(N)[nH]c(=O)c9n8)cc7)C(=O)O)nn6)cn5)[C@H](O)[C@]5(CC)C=CCN6CC[C@]43[C@@H]65)C2)C1` (some centres unmarked) [Example 83] had a half-life greater than 24 h.
Take `C[Si](C)(C)O[Si](C)(C)CS(=O)(=O)c1ncccn1` [Example 10, 2-(((1,1,3,3,3-Pentamethyldisiloxanyl)methyl)sulfonyl)pyrimidine]: the half-life in data set [1] (pH 5) and in data set [1] (pH 7.4) was 0.583 h each time.
One may read the EC50 as the midpoint of the concentration-response curve. A low value points to greater potency. In turn, `CC[C@]1(O)C[C@@H]2C[N@@](CCc3c([nH]c4ccccc34)[C@@](C(=O)OC)(c3cc4c(cc3OC)N(C)[C@H]3[C@@](O)(C(=O)NCCC[Si](C)(C)O[Si](C)(C)CSc5ncc(Cn6cc(COCCOCCOCCOCCOCCOCCNC(=O)CC[C@H](NC(=O)c7ccc(NCc8cnc9nc(N)[nH]c(=O)c9n8)cc7)C(=O)O)nn6)cn5)[C@H](O)[C@]5(CC)C=CCN6CC[C@]43[C@@H]65)C2)C1` [Example 80] gave a half-life in data set [2] (pH 5) of 0.75 h. Further, the half-life in data set [2] (pH 7.4) was 24 h. Besides, in data set [3], the EC50 was roughly 265 nM and the “% Kill (48 h)” value was determined as 84%.
On to `C[Si](C)(CCCC(=O)O)O[Si](C)(C)c1ccccc1` [Example 1, 4-(1,1,3,3-Tetramethyl-3-phenyldisiloxanyl)butanoic acid], for which the half-life in data set [1] (pH 5) is 1.67 h; in data set [1] (pH 7.4), greater than 24 h.
On to `CCOC(=O)CCC[Si](C)(C)O[Si](C)(C)CCCC(=O)O` [Example 7, 4-(3-(4-ethoxy-4-oxobutyl)-1,1,3,3-tetramethyldisiloxanyl)butanoic acid], for which the half-life in data set [1] (pH 5) was 0.333 h; in data set [1] (pH 7.4) it was greater than 24 h.
As for `CC(C)C(=O)NCCC[Si](C)(C)O[Si](C)(C)CSc1ncccn1` [Example 34, N-(3-(1,1,3,3-Tetramethyl-3-((pyrimidin-2-ylthio)methyl)disiloxanyl)propyl) isobutyramide], the values for the half-life in data set [1] (pH 5) and in data set [1] (pH 7.4) were 0.0333 h and greater than 2 h, respectively.
Take `CC[C@]1(O)C[C@H]2CN(CCc3c([nH]c4ccccc34)[C@@](C(=O)OC)(c3cc4c(cc3OC)N(C)[C@H]3[C@@](O)(C(=O)NCCC[Si](C)(C)O[Si](C)(C)CSc5ncc(COCCOCCOCCn6cc(COCC(COCc7cn(CCOCCOCCOCc8cnc(SC[Si](C)(C)O[Si](C)(C)CCCNC(=O)[C@@]9(O)[C@H](O)[C@]%10(CC)C=CCN%11CC[C@@]%12(c%13cc([C@@]%14(C(=O)OC)C[C@@H]%15CN(CCc%16c%14[nH]c%14ccccc%16%14)C[C@](O)(CC)C%15)c(OC)cc%13N(C)[C@@H]9%12)[C@@H]%11%10)nc8)nn7)(COCc7cn(CCOCCOCCOCc8cnc(SC[Si](C)(C)O[Si](C)(C)CCCNC(=O)[C@@]9(O)[C@H](O)[C@]%10(CC)C=CCN%11CC[C@@]%12(c%13cc([C@@]%14(C(=O)OC)C[C@@H]%15CN(CCc%16c%14[nH]c%14ccccc%16%14)C[C@](O)(CC)C%15)c(OC)cc%13N(C)[C@@H]9%12)[C@@H]%11%10)nc8)nn7)NC(=O)CCOCCOCCOCCOCCOCCOCCNC(=O)CC[C@H](NC(=O)c7ccc(NCc8cnc9nc(N)[nH]c(=O)c9n8)cc7)C(=O)O)nn6)cn5)[C@H](O)[C@]5(CC)C=CCN6CC[C@]43[C@@H]65)C2)C1` (some centres unmarked) [Example 82]: the half-life is 1 h in data set [2] (pH 5) and greater than 24 h in data set [2] (pH 7.4). In data set [3], the EC50 is roughly 193 nM. Moreover, the “% Kill (48 h)” value in data set [3] is 80%.
With `Cc1cc(C)nc(SC[Si](C)(C)O[Si](C)(C)C)n1` [Example 9, 4,6-Dimethyl-2-(((1,1,3,3,3-pentamethyldisiloxanyl)methyl)thio)pyrimidine], the half-life in data set [1] (pH 5) was found to be 0.417 h; in data set [1] (pH 7.4), 40 h.

Source of the values: patent US9931407B2, “Silicon based drug conjugates and methods of using same” (BlinkBio, Inc., priority 2015, dated 2018).
